Here are results for ten molecules from patent EP3895711A1, “CYCLOISOMALTOTETRAOSE, CYCLOISOMALTOTETRAOSE PRODUCTION ENZYME, AND PRODUCTION METHODS AND USES THEREOF” (Hayashibara Co., Ltd., priority 2018, dated 2020).

Series [1] deals with cycloisomaltotetraose-forming enzyme from Agreia sp. D1110 (NITE BP-02815). Kind of series: Substrate specificity of cycloisomaltotetraose-forming enzyme (TLC of reaction mixtures). Further: key: - : Not formed; + : Slightly formed; ++ : Formed; +++ : Significantly formed. In kind it is biochemical. As to conditions: substrate 1% (w/v), 20 units/g-solid of enzyme, pH 6.0, 40°C, 24 hours. The source says: Substrate specificity of cycloisomaltotetraose-forming enzyme was investigated using various saccharides as substrates. Aqueous solutions containing D-glucose, maltose, isomaltose, panose, isomaltotriose, isomaltotetraose, isomaltopentaose, isomaltohexaose, isomaltoheptaose, dextran T10 (average molecular weight: 10,000, commercialized by Pharmacosmos A/s., Denmark), dextran T70 (average molecular weight: 70,000, commercialized by Pharmacosmos A/s., Denmark), or dextran T2000 (average molecular weight: 2,000,000, commercialized by Pharmacosmos A/s., Denmark) were prepared as substrate solutions. To each substrate solution, acetate buffer and calcium chloride were added to give final concentrations of 50 mM and 1 mM, respectively, and then resulting solutions were admixed with 20 units/g-solid of cycloisomaltotetraose-forming enzyme from Agreia sp. […] To examine the saccharides in each reaction mixture before and after the reaction, saccharides were separated by silica gel thin-layer chromatography (hereinafter, abbreviated as "TLC") using "[…] 60F254", a TLC aluminum plate (10 x 20 cm) and a solvent (2-propanol/1-butanol/water, volume ratio of 12:3:4) with two-times ascending method. The separated saccharides on the plate were detected by visualizing the spots with sulfate-methanol method, and the degree of forming cycloisomaltotetraose from each substrate and the products other than cycloisomaltotetraose were investigated.

For series [2] the test system is unchanged. Nature of the series: Action of cycloisomaltotetraose-forming enzyme on isomaltopentaose (TLC). The class given is biochemical. Particulars: 1% (w/v) isomaltopentaose, 2.0 units/g-isomaltopentaose, pH 6.0, 40°C, 24 hours. The protocol:
As a part of examining the substrate specificity of cycloisomaltotetraose-forming enzyme, the action of the enzyme on isomaltopentaose was investigated. To 0.5 mL of 50 mM acetate buffer (pH 6.0) containing 1% (w/v) of isomaltopentaose (prepared in Hayashibara Co., Ltd., Okayama, Japan, purity: 98.1% by weight) and 0.006% (w/v) hinokitiol as a preservative, 2.0 units/g-isomaltopentaose of a purified cycloisomaltotetraose-forming enzyme from Agreia sp. D1110 (NITE BP-02815), obtained by the method in Experiment 6, was added, and the resulting mixture was incubated at 40°C for 24 hours and then heated at 100°C for 10 min to inactivate the enzyme. To examine the reaction products in the reaction mixture, saccharides were separated by TLC using "KIESELGEL 60", a TLC aluminum plate (10 x 20 cm) and a solvent (acetonitrile/water/ethyl acetate/1-propanol, volume ratio of 85:70:20:50) and two-times ascending method. The separated saccharides on the plate were detected by visualizing the spots with sulfate-methanol method, and the reaction products formed from isomaltopentaose were investigated.

Series [3] can be described thus: Digestivity test using small intestinal mucosal enzyme. Particulars: rat, small intestine mucosal enzyme, 1% by weight, pH 6.0, 50 units/g-cycloisomaltotetraose, 37°C, read-out: residual rate (%) of cycloisomaltotetraose after the enzymatic reaction. In kind it is in vitro ADME. The protocol:
To the substrate solution, 50 units/g-cycloisomaltotetraose, as maltose-hydrolyzing activity, of small intestine mucosal enzyme (α-glucosidase) prepared from rat small intestine acetone powder, commercialized by Sigma-Aldrich Co., was added, and the resulting mixture was incubated at 37°C for 24 hours and then heated at 100°C for 10 min to inactivate the enzyme. The amounts of cycloisomaltotetraose in the solution before and after the reaction were determined by HPLC, and the residual rate (%) of cycloisomaltotetraose after the enzymatic reaction, i.e., (the amount after the reaction/the amount before the reaction) x 100, was measured.

The target of the next series is T1, α-glucosidase (Aspergillus niger, UniProt P56526).
T1 construct: purchased Amano Enzyme Co., Ltd. TRANSGLUCOSIDASE L Amano
Nature of the series: Preliminary test: hydrolysis by α-glucosidase. In kind it is biochemical. As to conditions: preliminary test using a small amount of the reaction product. The protocol: (§1) The enzymatic reaction product containing Unknown Saccharide I, obtained in Experiment 1-2, was adjusted to pH 5.0, admixed with 100 U/g-solid of "TRANSGLUCOSIDASE L Amano", α-glucosidase produced by Amano Enzyme Co., Ltd., and 1,000 U/g-solid of glucoamylase commercialized by Nagase ChemteX Co., Ltd., and then reacted at 50°C for 4 days. After the reaction, the reaction was stopped by heating the reaction mixture at about 100°C for 10 min. The saccharides in the resulting reaction mixture were analyzed by analytical high-performance liquid chromatography (hereinafter, abbreviated as "analytical HPLC"). As a result, D-glucose and Unknown Saccharide I were detected at elution times of 58.7 min and 49.4 min, respectively. The saccharide composition of the reaction mixture is 30.0% (w/w) of D-glucose, 65.5% (w/w) of Unknown Saccharide I, and 4.5% (w/w) of partial dextran hydrolysates containing isomaltooligosaccharides.

The test system of a further series is glucoamylase. Kind of series: Preliminary test: hydrolysis by glucoamylase. In kind it is biochemical. As to conditions: preliminary test using a small amount of the reaction product. The protocol:
as §1

Series [4] in a line: pH stability of cycloisomaltotetraose. As to conditions: 4% (w/v), 100°C; for Degree of coloring (A480nm): 24 hours; for remaining at 24 h: read-out: Purity of cycloisomaltotetraose (% by weight). The class given is physicochemical. The protocol: The crystalline cycloisomaltotetraose preparation obtained in Experiment 3-1 was dissolved in various buffers to make 7 kinds of aqueous cycloisomaltotetraose solutions with a cycloisomaltotetraose concentration of 4% (w/v), and with the pH adjusted to 3 to 9. Eight milliliters each of the aqueous solution was taken into a glass centrifuge tube with a screw cap, sealed, and heated at 100°C for 24 hours. After cooling them, the measurement for the degree of coloring degree of those aqueous solution and for the cycloisomaltotetraose purity were carried out in the same manner in Experiment 16.

Series [5] in a line: Thermal stability of cycloisomaltotetraose in aqueous solution. In kind it is physicochemical. Particulars: 7% (w/v) aqueous solution, 120°C. The protocol:
An aqueous cycloisomaltotetraose solution with a solid concentration of 7% (w/v) was prepared by dissolving the crystalline cycloisomaltotetraose preparation with a purity of 99.5% by weight, obtained in Experiment 3-1. Eight milliliters each of the aqueous solution was taken in a glass centrifuge tube with a screw cap, sealed, and then heated for 30 to 90 min at 120°C. The solutions before heating and those after heating for various times were subjected to the measurement for the degree of coloring and for the cycloisomaltotetraose purity by HPLC method. The degree of coloring was defined as the absorbance at 480 nm measured by using a 1-cm cell.

Series [6] is described as follows: Preliminary test: alkaline treatment. The class given is physicochemical. As to conditions: preliminary test using a small amount of the reaction product.

T1 sequence (P56526 26-985): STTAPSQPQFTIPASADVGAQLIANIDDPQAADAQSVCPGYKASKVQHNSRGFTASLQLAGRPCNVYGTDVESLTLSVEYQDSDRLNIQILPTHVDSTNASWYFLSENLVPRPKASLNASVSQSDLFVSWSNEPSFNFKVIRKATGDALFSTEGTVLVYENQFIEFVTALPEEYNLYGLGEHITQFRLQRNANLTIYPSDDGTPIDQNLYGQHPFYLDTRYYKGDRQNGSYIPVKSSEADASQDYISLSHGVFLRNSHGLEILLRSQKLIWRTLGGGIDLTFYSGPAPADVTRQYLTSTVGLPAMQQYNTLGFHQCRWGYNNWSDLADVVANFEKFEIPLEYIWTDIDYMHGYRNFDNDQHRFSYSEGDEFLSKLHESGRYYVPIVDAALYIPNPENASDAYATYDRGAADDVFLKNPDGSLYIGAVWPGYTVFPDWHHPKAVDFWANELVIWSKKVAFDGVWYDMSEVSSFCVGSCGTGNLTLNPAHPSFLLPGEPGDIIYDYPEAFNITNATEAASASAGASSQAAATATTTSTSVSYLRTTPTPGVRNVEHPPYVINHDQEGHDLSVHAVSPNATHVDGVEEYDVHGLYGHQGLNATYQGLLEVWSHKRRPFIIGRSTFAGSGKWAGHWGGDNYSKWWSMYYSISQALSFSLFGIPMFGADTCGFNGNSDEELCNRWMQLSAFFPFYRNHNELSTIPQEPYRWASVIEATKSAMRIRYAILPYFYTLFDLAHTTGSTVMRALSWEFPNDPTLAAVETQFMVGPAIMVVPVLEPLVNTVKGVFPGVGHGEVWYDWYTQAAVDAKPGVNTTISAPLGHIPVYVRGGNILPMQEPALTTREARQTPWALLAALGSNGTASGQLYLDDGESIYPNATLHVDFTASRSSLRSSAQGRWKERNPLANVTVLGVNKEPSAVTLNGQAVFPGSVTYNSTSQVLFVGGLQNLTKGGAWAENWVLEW

On to `OC[C@H]1O[C@H](O[C@H]2[C@H](O)[C@@H](O)C(O)O[C@@H]2CO)[C@H](O)[C@@H](O)[C@@H]1O` (mixture of isomers) [Maltose, maltose], for which the Formation of cycloisomaltotetraose result in series [1] was “-”.

Regarding `OC[C@H]1OC(O)[C@H](O)[C@@H](O)[C@@H]1O` (stereo partly drawn) [D-Glucose, D-glucose], in series [1], the Formation of cycloisomaltotetraose result was “-”.

`OC[C@H]1O[C@H](OC[C@H]2O[C@H](OC[C@H]3O[C@H](OC[C@H]4O[C@H](OC[C@H]5O[C@H](OC[C@H]6O[C@H](OC[C@H]7OC(O)[C@H](O)[C@@H](O)[C@@H]7O)[C@H](O)[C@@H](O)[C@@H]6O)[C@H](O)[C@@H](O)[C@@H]5O)[C@H](O)[C@@H](O)[C@@H]4O)[C@H](O)[C@@H](O)[C@@H]3O)[C@H](O)[C@@H](O)[C@@H]2O)[C@H](O)[C@@H](O)[C@@H]1O` (stereo partly drawn) [Isomaltoheptaose, isomaltoheptaose]: the Formation of cycloisomaltotetraose result in series [1] is given as “+++”.

As for `OC[C@H]1O[C@H](OC[C@H]2O[C@H](OC[C@H]3O[C@H](OC[C@H]4O[C@H](OC[C@H]5O[C@H](OC[C@H]6OC(O)[C@H](O)[C@@H](O)[C@@H]6O)[C@H](O)[C@@H](O)[C@@H]5O)[C@H](O)[C@@H](O)[C@@H]4O)[C@H](O)[C@@H](O)[C@@H]3O)[C@H](O)[C@@H](O)[C@@H]2O)[C@H](O)[C@@H](O)[C@@H]1O` (stereo partly drawn) [Isomaltohexaose, isomaltohexaose], in series [1], the Formation of cycloisomaltotetraose result was “+++”.

As for `OC[C@H]1O[C@H](OC[C@H]2O[C@H](OC[C@H]3O[C@H](OC[C@H]4O[C@H](OC[C@H]5OC(O)[C@H](O)[C@@H](O)[C@@H]5O)[C@H](O)[C@@H](O)[C@@H]4O)[C@H](O)[C@@H](O)[C@@H]3O)[C@H](O)[C@@H](O)[C@@H]2O)[C@H](O)[C@@H](O)[C@@H]1O` (stereo partly drawn) [Isomaltopentaose, isomaltopentaose], the “reaction products formed from isomaltopentaose” value in series [2] is “produces cycloisomaltotetraose with isomaltotetraose, also slightly isomaltotriose, isomaltose, glucose and high molecular glucans”. For the same molecule, the Formation of cycloisomaltotetraose entry in series [1] was “++”.

For the molecule `OC[C@H]1O[C@H](OC[C@H]2OC(O)[C@H](O)[C@@H](O)[C@@H]2O)[C@H](O)[C@@H](O)[C@@H]1O` (stereo partly drawn) [Isomaltose, isomaltose], the Formation of cycloisomaltotetraose result in series [1] is “-”.

On to `OC[C@H]1O[C@H](OC[C@H]2O[C@H](OC[C@H]3O[C@H](OC[C@H]4OC(O)[C@H](O)[C@@H](O)[C@@H]4O)[C@H](O)[C@@H](O)[C@@H]3O)[C@H](O)[C@@H](O)[C@@H]2O)[C@H](O)[C@@H](O)[C@@H]1O` (stereo partly drawn) [Isomaltotetraose, isomaltotetraose], for which the Formation of cycloisomaltotetraose entry in series [1] is “+”.

As to `OC[C@H]1O[C@H](OC[C@H]2O[C@H](OC[C@H]3OC(O)[C@H](O)[C@@H](O)[C@@H]3O)[C@H](O)[C@@H](O)[C@@H]2O)[C@H](O)[C@@H](O)[C@@H]1O` (stereo partly drawn) [Isomaltotriose, isomaltotriose], in series [1], the Formation of cycloisomaltotetraose result was “-”.

In the case of `OCC1OC(OCC2OC(OC3C(CO)OC(O)C(O)C3O)C(O)C(O)C2O)C(O)C(O)C1O` (stereo not drawn) [Panose, panose], the Formation of cycloisomaltotetraose result in series [1] is on record as “-”.

For the molecule `O[C@@H]1[C@@H](O)[C@H]2OC[C@H]3O[C@H](OC[C@H]4O[C@H](OC[C@H]5O[C@H](OC[C@@H](O2)[C@H]1O)[C@H](O)[C@@H](O)[C@@H]5O)[C@H](O)[C@@H](O)[C@@H]4O)[C@H](O)[C@@H](O)[C@@H]3O` [cycloisomaltotetraose, cyclo{→6)-α-D-glucopyranosyl-(1→6)-α-D-glucopyranosyl-(1→6)-α-D-glucopyranosyl-(1→6)-α-D-glucopyranosyl-(1→}], the remaining at 24 h stood at 91.6% in series [3]; 93.5% in series [4] (pH 3, Acetate buffer); 99.4% in series [4] (pH 4, Acetate buffer); 99.4% in series [4] (pH 5, Acetate buffer); 99.4% in series [4] (pH 6, Tris-HCl buffer); 99.5% in series [4] (pH 7, Tris-HCl buffer). In addition, the remaining at 24 h stood at 99.5% in series [4] (pH 8, Tris-HCl buffer) and 99.4% in series [4] (pH 9, Ammonium buffer). For the same molecule, at α-glucosidase, the “hydrolysis by α-glucosidase” value is reported as “not hydrolyzed”. Moreover, the hydrolysis by glucoamylase result with glucoamylase is on record as “not hydrolyzed”. The “Degree of coloring (A480nm)” value is 0.000 A480nm in series [4] (pH 3, Acetate buffer); 0.000 A480nm in series [4] (pH 4, Acetate buffer); 0.000 A480nm in series [4] (pH 5, Acetate buffer); 0.000 A480nm in series [4] (pH 6, Tris-HCl buffer); 0.000 A480nm in series [4] (pH 7, Tris-HCl buffer); 0.001 A480nm in series [4] (pH 8, Tris-HCl buffer). Moreover, the “Degree of coloring (A480nm)” value in series [4] (pH 9, Ammonium buffer) came to 0.000 A480nm; in series [5] (heating time 0 min) it was 0.000 A480nm; in series [5] (heating time 30 min), 0.000 A480nm; in series [5] (heating time 60 min) it was 0.000 A480nm; in series [5] (heating time 90 min), 0.000 A480nm. Further, the “Purity of cycloisomaltotetraose (% by weight)” value in series [5] (heating time 0 min) is recorded as 99.5 % by weight. For the same molecule, the remaining at 0.5 h in series [5] (water, heating time 30 min, read-out: Purity of cycloisomaltotetraose (% by weight)) turned out to be 99.5%. Further, in series [5] (water, heating time 60 min, read-out: Purity of cycloisomaltotetraose (% by weight)), the remaining at 1 h was found to be 99.5%. Further, the remaining at 1.5 h in series [5] (water, heating time 90 min, read-out: Purity of cycloisomaltotetraose (% by weight)) stood at 99.5%. Further, the “decomposition by alkaline treatment” value in series [6] is on record as “not decomposed”.
